Reference: patent US8633245B2, “PAI-1 inhibitor” (Institute of Medicinal Molecular Design, Inc., priority 2008, dated 2014)
Read-outs that look alike come from different tables or passages of the source.

Target: T1, recombinant human PAI-1 (Homo sapiens, UniProt P05121)
T1 construct: purchased Molecular Innovations, Inc
Assay: Test Example 2: human PAI-1 inhibitory activity (tPA fluorogenic substrate, pH 7.4 HEPES buffer)
Assay type: biochemical
Description: 0.1 M HEPES, 0.1 M NaCl. 1 mM EDTA. 0.1% Polyethylene glycol 8,000 (Hampton Research Corporation),
2 mM Dimethyldecylphoshine oxide [Apo-10] (Fluka Corporation)

[1] = human PAI-1, calculated from the inhibition rates
[2] = read-out: Inhibition Rate of PAI-1 Activity (%)

T1 sequence (P05121 24-402): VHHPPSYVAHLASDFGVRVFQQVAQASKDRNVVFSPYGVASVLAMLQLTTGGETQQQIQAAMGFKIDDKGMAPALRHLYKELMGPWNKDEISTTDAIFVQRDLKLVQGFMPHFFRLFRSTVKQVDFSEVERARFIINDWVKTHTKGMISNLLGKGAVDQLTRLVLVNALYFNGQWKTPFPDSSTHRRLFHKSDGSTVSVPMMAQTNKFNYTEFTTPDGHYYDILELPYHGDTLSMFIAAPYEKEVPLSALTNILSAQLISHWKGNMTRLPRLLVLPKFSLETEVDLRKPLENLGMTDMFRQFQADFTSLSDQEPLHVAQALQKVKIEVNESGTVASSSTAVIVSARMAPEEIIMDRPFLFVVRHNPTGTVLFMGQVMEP

SMILES	IC50 [1] [nM]	IC50 [nM]	further results
CC(C)c1ccc(Oc2cc(-c3ccc(OC(F)(F)F)cc3)ccc2OCC(=O)O)cc1 [Compound 333]	1720	–	–
CC(C)(C)c1ccc(Oc2cc(-c3ccc(OC(F)(F)F)cc3)ccc2CC(=O)O)cc1 [Compound 334]	1910	–	–
CC(C)(C)c1cccc(Oc2cc(-c3ccc(OC(F)(F)F)cc3)ccc2/C=C/C(=O)O)c1 [Compound 335]	740	–	inhibition at 3 µM [2]: > 99%
CC(C)(C)c1cccc(Oc2cc(-c3ccc(OC(F)(F)F)cc3)ccc2CCC(=O)O)c1 [Compound 336]	1080	–	inhibition at 3 µM [2]: > 99%
O=C(O)COc1ccc(-c2ccc(OC(F)(F)F)cc2)cc1OCCCCc1ccccc1 [Compound 337]	2020	–	–
CC(C)(C)OCCOc1ccc(-c2ccc(OC(F)(F)F)cc2)cc1N(CCCCc1ccccc1)C(=O)C(=O)O [Compound 351]	1950	–	–
CCCCCCCOc1ccc(-c2ccc(OC(F)(F)F)cc2)cc1N(CCCCc1ccccc1)C(=O)C(=O)O [Compound 352]	740	–	–
CCCCCCCCOc1ccc(-c2ccc(OC(F)(F)F)cc2)cc1N(CCCCc1ccccc1)C(=O)C(=O)O [Compound 353]	510	–	–
O=C(O)C(=O)N(CCCCc1ccccc1)c1cc(-c2ccc(OC(F)(F)F)cc2)ccc1OCCCCc1ccccc1 [Compound 354]	560	–	–
O=C(O)C(=O)N(CCCCc1ccccc1)c1cc(-c2ccc(OC(F)(F)F)cc2)ccc1OCCCC1CCCC1 [Compound 355]	640	–	–
CCCCCOc1ccc(-c2ccc(OC(F)(F)F)cc2)cc1N(CCCOc1ccccc1)C(=O)C(=O)O [Compound 356]	930	–	inhibition at 3 µM [2]: > 99%
CCCCCOc1ccc(-c2ccc(OC(F)(F)F)cc2)cc1N(CCCSc1ccccc1)C(=O)C(=O)O [Compound 357]	770	–	inhibition at 3 µM [2]: > 99%
CCCCCN(C(=O)C(=O)O)c1cc(-c2ccc(OC(F)(F)F)cc2)ccc1OCCCCc1ccccc1 [Compound 358]	900	–	–
CCCCCOc1ccc(-c2ccc(F)cc2)cc1N(CCCCc1ccccc1)C(=O)C(=O)O [Compound 359]	–	1640	–
CCCCCOc1ccc(-c2ccccc2)cc1N(CCCCc1ccccc1)C(=O)C(=O)O [Compound 360]	–	1590	–
CCCCCOc1ccc(-c2ccc(Cl)cc2)cc1N(CCCCc1ccccc1)C(=O)C(=O)O [Compound 361]	–	830	–
CCCCCOc1cc(Oc2ccc(OC(F)(F)F)cc2)ccc1N(CCCCc1ccccc1)C(=O)C(=O)O [Compound 362]	–	840	inhibition at 3 µM [2]: > 99%

SMILES	IC50 [1] [nM]	IC50 [nM]	further results
CCCCCOc1ccc(Oc2ccc(OC(F)(F)F)cc2)cc1N(CCCCc1ccccc1)C(=O)C(=O)O [Compound 363]	–	830	inhibition at 3 µM [2]: > 99%
CCCCCCCCCOc1ccc(-c2ccc(OC(F)(F)F)cc2)cc1N(CCCCc1ccccc1)C(=O)C(=O)O [Compound 364]	–	110	–
CCCCCCCCCCOc1ccc(-c2ccc(OC(F)(F)F)cc2)cc1N(CCCCc1ccccc1)C(=O)C(=O)O [Compound 365]	–	110	–
CCCCCOc1ccc(-c2ccc(OC(F)(F)F)cc2)cc1N(CCCCC)C(=O)C(=O)O [Compound 366]	–	1060	–
CCCCCOc1cc(-c2ccc(OC(F)(F)F)cc2)ccc1N(CCCCc1ccccc1)C(=O)C(=O)O [Compound 367]	–	900	–
O=C(O)C(=O)N(CCCCc1ccccc1)c1cc(-c2ccc(OC(F)(F)F)cc2)ccc1OC1CCCCC1 [Compound 368]	–	450	–
CCC(CC)Oc1ccc(-c2ccc(OC(F)(F)F)cc2)cc1N(CCCCc1ccccc1)C(=O)C(=O)O [Compound 369]	–	690	–
O=C(O)C(=O)N(CCCCc1ccccc1)c1cc(-c2ccc(OC(F)(F)F)cc2)ccc1N1CCCCC1 [Compound 370]	–	940	–
CCCCCCCOc1ccc(-c2ccc(OC(F)(F)F)cc2)cc1N(CCCCc1ccccc1)C(=O)C(=O)O [Compound 371]	–	–	IC50 (concentration that inhibits 50% of the human PAI-1 activity, calculated from Test Example 2 inhibition rates): 690 nM; Inhibition Rate of PAI-1 Activity (%) (human PAI-1, compound concentration 0.1 μM): 10%; Inhibition Rate of PAI-1 Activity (%) (human PAI-1, compound concentration 0.3 μM): 17%; Inhibition Rate of PAI-1 Activity (%) (human PAI-1, compound concentration 1 μM): 93%; Inhibition Rate of PAI-1 Activity (%) (human PAI-1, compound concentration 3 μM): 91%
CCCCCOc1cc(-c2ccc(OC(F)(F)F)cc2)cc(N(CCCCc2ccccc2)C(=O)C(=O)O)c1OCCCCC [Compound 372]	–	460	–
CC(C)(C)Oc1ccc(-c2ccc(OC(F)(F)F)cc2)cc1N(CCCCc1ccccc1)C(=O)C(=O)O [Compound 373]	–	1580	–
CCCCCOc1ccc(-c2ccc(OC(F)(F)F)cc2)cc1N(CCCCOc1ccccc1)C(=O)C(=O)O [Compound 374]	–	880	inhibition at 3 µM [2]: > 99%
CCCCCCCCCCCCCCCOc1ccc(-c2ccc(OC(F)(F)F)cc2)cc1N(CCCCc1ccccc1)C(=O)C(=O)O [Compound 375]	–	< 100	inhibition at 1 µM [2]: > 99%
CCCCCOc1cc(-c2cccc(C)c2)ccc1N(CCCCc1ccccc1)C(=O)C(=O)O [Compound 376]	–	790	–
CCCCCOc1cc(-c2cccc(C(F)(F)F)c2)ccc1N(CCCCc1ccccc1)C(=O)C(=O)O [Compound 377]	–	480	–
CCCCCOc1ccc(-c2cccc(C(F)(F)F)c2)cc1N(CCCCc1ccccc1)C(=O)C(=O)O [Compound 378]	–	620	–
CCCCCOc1ccc(-c2cccc(C)c2)cc1N(CCCCc1ccccc1)C(=O)C(=O)O [Compound 379]	–	640	–
